According to patent publication US20260041744A1, “Methods for Treating Pompe Disease” (Amicus Therapeutics, Inc., priority 2022, published 2026):

System: adult subjects with late-onset Pompe disease (LOPD)
Assay: Study ATB200-03 (PROPEL): 6-minute walk test (6MWD)
Format: in vivo, human
Procedure: Efficacy Analyses. The primary efficacy endpoint (i.e., change from baseline to Week 52 in 6MWD) was analyzed using a parametric analysis of covariance (ANCOVA) model to compare between the new treatment and the control. […] However, the baseline 6MWD could not be used in the model twice (both as a continuous and a categorical variable) due to the expected high point biserial correlation between them. Thus, the 6MWD continuous variable remained in the model but the categorical 6MWD was removed.
The test for the primary endpoint was conducted first at the 1-sided 0.025 significance level, and if significant, the ordered key secondary endpoints were similarly tested at the same significance level. The statistical significance of the key secondary endpoints was interpreted following a hierarchical testing order, each at the 1-sided alpha level of 0.025. […] Primary analyses of efficacy were performed using the mixed-effect model for repeated measures (MMRM) for 6MWD in Intent-to-treat Observed Population (ITT) that includes all available, observed data without any missing data imputation (ITT-OBS) and analysis of covariance (ANCOVA) for all other endpoints in the Intent-to-Treat-Last Observation Carried Forward (ITT-LOCF) Population. A nonparametric randomization based ANCOVA was specified as the first sensitivity analysis for 6MWD and FVC. […] For the purposes of data presentation in this document, 2-sided p-values are reported hereafter, except as otherwise noted.
Analysis of 6MWD was performed using an MMRM model with actual time point of assessments on the ITT-OBS and excluding the outlier Subject 4005-2511. Specifically, the dependent variable is the change from baseline in the assessment. Independent variables include the fixed, categorical effects of treatment, ERT status, and gender, as well as the fixed, continuous covariates of time of assessment (days), baseline 6MWD, baseline age, baseline weight, and baseline height, and the treatment-by-time interaction. A random intercept of subject is also included in the model. Change from baseline at Week 52 for each treatment group and the difference between treatment groups were then estimated with the LS means at Day 364, together with the 95% CIs.

[1] = Baseline, ITT, ERT-naïve Population excluding Subject 4005-2511
[2] = Week 52-LOCF, ERT-experienced Population
[3] = Week 52-LOCF, ITT excluding Subject 4005-2511
[4] = Week 52-LOCF, ITT, ERT-naïve Population excluding Subject 4005-2511
[5] = Week 52-Observed, ERT-experienced Population
[6] = Week 52-Observed, ITT excluding Subject 4005-2511
[7] = Week 52-Observed, ITT, ERT-naïve Population excluding Subject 4005-2511

alglucosidase alfa [reference compound] was tested, and the “6MWD Absolute Value, Mean” value [1] was 420.94 meters, the “6MWD Absolute Value, Median” value [1] was 385.50 meters and the “6MWD CFBL at Week 52” value (ERT switch (ERT-experienced) population) was 0.0 m. For the same substance, the “6MWD CFBL at Week 52” value (ERT switch (ERT-experienced) population, listed as Alglucosidase alfa) was 0.0 (7.2) m, the “6MWD CFBL at Week 52” value (ERT treatment naive population) was 38 m and the “6MWD CFBL at Week 52” value (ERT treatment naive population, listed as Alglucosidase alfa) was “+38.3 (11.1) m”. The “mean (SD) change in 6MWD from baseline to Week 52” value (“mean (SD) change in 6MWD” below) (ERT-experienced Population (n=95)) was 0.7 (39.84) meters, the “mean (SD) change in 6MWD” value (ERT-naïve Population excluding Subject 4005-2511 (n=27)) was 38.3 (29.32) meters and the “mean (SD) change in 6MWD” value (ITT population excluding Subject 4005-2511) was 8.0 (40.56) meters. The “6MWD LS mean improvement from baseline, MMRM with actual time point of assessments” value (ITT-OBS excluding Subject 4005-2511, Week 52) was 8.3 m, the “Change in 6MWD baseline to Week 52, LS means (SE) from MMRM” value (ITT-OBS, ERT-naïve Population excluding Subject 4005-2511) was 39.47 (17.15) meters and the “CHG to week 52 in 6MWD, LS Mean (95% CI)” value (MMRM, actual time point of assessments, ITT-OBS Population excluding Subject 4005-2511 (overall)) was 8.3 (−2.2, 18.8) m. The “CHG to Week 52 in 6MWD, LS Mean” value (MMRM, actual time point of assessments, ITT-OBS excluding Subject 4005-2511, ERT-naïve Subjects) was 52.7, the “CHG to Week 52 in 6MWD, LS Mean” value (MMRM, actual time point of assessments, ITT-OBS, ERT-experienced Subjects) was 0.9 and the “6MWD Absolute Value, Mean (SD)” value [2] was 334.60 (129.506) meters. The “6MWD Absolute Value, Median” value [2] was 339.03 meters, the “6MWD CHG, Mean (SD)” value [2] was −0.02 (39.345) meters and the “6MWD CHG, Median” value [2] was −8.93 meters. The “6MWD Absolute Value, Mean” value [3] was 358.19 meters, the “6MWD Absolute Value, Median” value [3] was 370.00 meters and the “6MWD CHG, Mean” value [3] was 7.24 meters. For the same substance, the “6MWD CHG, Median” value [3] was 1.40 meters, the “6MWD Absolute Value, Mean” value [4] was 459.28 meters and the “6MWD Absolute Value, Median” value [4] was 446.50 meters. The “6MWD CHG (change from baseline), Mean” value [4] was 38.34 meters, the “6MWD CHG (change from baseline), Median” value [4] was 33.50 meters and the “6MWD Absolute Value, Mean (SD)” value [5] was 335.66 (131.666) meters. For the same substance, the “6MWD Absolute Value, Median” value [5] was 348.00 meters, the “6MWD CHG, Mean (SD)” value [5] was 0.70 (39.841) meters and the “6MWD CHG, Median” value [5] was −8.65 meters. The “6MWD Absolute Value, Mean” value [6] was 359.70 meters, the “6MWD Absolute Value, Median” value [6] was 371.75 meters and the “6MWD CHG, Mean” value [6] was 8.02 meters. For the same substance, the “6MWD CHG, Median” value [6] was 3.15 meters, the “6MWD Absolute Value, Mean” value [7] was 459.28 meters and the “6MWD Absolute Value, Median” value [7] was 446.50 meters. The “6MWD CHG (change from baseline), Mean” value [7] was 38.34 meters, the “6MWD CHG (change from baseline), Median” value [7] was 33.50 meters and the “LS Mean (SE), Change from Baseline in 6MWD” value (Week 52, ANCOVA, ITT-LOCF excluding outliers with externally studentized residuals >3) was 6.95 (6.951) meters. For the same substance, the “6MWD CHG, LS mean (SE)” value (Week 52, MMRM, ITT-OBS excluding Subject 4005-2511) was 7.10 (7.043) meters, the “6MWD CHG, LS means (SE)” value (Week 52, MMRM, ITT-OBS, ERT-experienced Population) was 0.59 (7.569) meters and the “6MWD CFBL at Week 52” value (overall ERT switch + ERT naïve population) was 7 m. The “6MWD CFBL at Week 52” value (overall ERT switch + ERT naïve population, listed as Alglucosidase alfa) was “+7.2 (6.6) m” and the “6MWD CFBL at Week 52” value (overall ERT switch + ERT naïve population, listed as alglucosidase alfa/placebo) was 7 m.
